{"source": "patent US20260373136A1", "about": "“A NOVEL DOSAGE REGIMEN USING LOW DOSES OF DONEPEZIL OR DERIVATIVE THEREOF FOR PREVENTING OR TREATING A COMPULSIVE DISORDER” (SORBONNE UNIVERSITE, priority 2022, published 2026)", "key": {"[1]": {"assay": "Body weight / BMI of anorexic patients treated with donepezil", "type": "in vivo, human", "method": "The term “Body Mass Index” (BMI) is calculated by dividing the body mass of an individual (in kg) by his height (in […]). The BMI is generally used to evaluate if an individual suffers from under nutrition or on the contrary if he/she suffers from overweight or obesity.\n(§1) 6 anorexic patients were treated with donepezil: 5 of them with a daily dose according to the present invention and 1 with a higher dose (comparative).\n(§2) The studies were led in hospital. Each case is presented below.\nPatient #2 is a person who developed anorexia nervosa restricting type in adolescence. They were very restricted in the types of food they ate and could not eat food that was processed or high in sugar or fats. They exercised 3-4 hours a day. They were unable to reduce their exercising even minimally […] becoming flooded with debilitating anxiety. They were unable to eat enough to maintain a healthy weight. Their BMI was 18.5 kg/m^2 and was medically stable when they started donepezil.\n(§3) The treatment started with a daily dose of donepezil of 0.5 mg for 10 days then the daily dose was increased to 1 mg for 7 days then increased to 1.5 mg for 71 days (2 months and 10 days) then increased to 2 mg for 22 days and then increased to 2.5 mg and remains on this dose for 4 months and 18 days.\n(§4) The treatment started with a daily dose of donepezil of 0.5 mg for 13 days then the daily dose was increased to 0.75 mg for 9 days then increased to 1 mg for 17 days and then increased to 1.5 mg and remained at this dosage for a month then stopped for two months and then restarted with a daily dose of 1.5 mg that remains within 1 month and then discontinued.\nA patient who has suffered from anorexia nervosa during their second pregnancy. They have been vigilant about their caloric intake and body image since their adolescence. […] The symptomatology is dominated by qualitative and quantitative food restriction and physical hyperactivity. […] Neurocognitive executive functions are preserved, there is a high tolerance of delayed reward measured by Delay Discounting Task. […]"}, "[2]": {"assay": "Patient Health Questionnaire (PHQ-9) before and after treatment", "type": "in vivo, human", "conditions": "for depression symptoms: PHQ-9 post vs pre-treatment; for Patient Health Questionnaire (PHQ-9) score, post treatment: 5-9 mild, 10-14 moderate, 15-19 moderately severe, 20-27 severe depression", "method": "as §1, §2, §3\nPatient #2 depression symptoms have also been evaluated with Patient Health Questionnaire (PHQ-9) (available on https://med.stanford.edu/fastlab/research/imapp/msrs/_jcr_content/main/accordion/accor dion_content3/download_256324296/file.res/PHQ9%20id%20date%2008.03.pdf) before and after the treatment. The following scores have been obtained:\nThe score obtained with questionnaire PHQ-9 is classified as follows: • 5-9: mild depression; 10-14: moderate depression; 15-19: moderately severe depression; • 20-27: severe depression\nas §4\nPatient #4 depression symptoms have also been evaluated with questionnaire PHQ-9 before and after the treatment. The following scores have been obtained:\nThe score obtained with questionnaire PHQ-9 is classified as follows: • 5-9: mild depression; 10-14: moderate depression; 15-19: moderately severe depression; 20-27: severe depression\n(§5) The treatment started with a daily dose of donepezil of 0.5 mg for 8 days and then the daily dose was increased to 1 mg for 9 days and then increased to 1.67 mg for 62 days and then increased to 2.5 mg.\nPatient #6 depression symptoms have also been evaluated with questionnaire PHQ-9 before and after the treatment."}, "[3]": {"assay": "Eating Disorder Examination Questionnaire (EDE-q) before and after treatment", "type": "in vivo, human", "design": "scale not given here", "conditions": ">=4 clinical range, >2.8 possible clinically significant pathology", "method": "as §1, §2, §4\nThe eating disorders of patient #4 before and after treatment have been evaluated with the Eating Disorder Examination Questionnaire (EDE-q) (available on https://www.corc.uk.net/outcome-experience-measures/eating-disorder-examination-questionnaire-ede-q/) which has given the following results:\nas §5\nThe eating disorders of patient #6 before and after treatment have been evaluated with EDE-q questionnaire which has given the following results: […]"}, "[4]": {"assay": "Generalized Anxiety Disorders Assessment (GAD-7) questionnaire before and after treatment", "type": "in vivo, human", "conditions": "for anxiety: GAD-7 post vs pre-treatment; for General anxiety disorder (GAD-7) score, post treatment: 5-9 mild, 10-14 moderate, 15-21 severe anxiety", "method": "as §1, §2, §3\nPatient #2 anxiety has also been evaluated with Generalized Anxiety Disorders Assessment (GAD-7) questionnaire (available on https://adaa.org/sites/default/files/GAD-7_Anxiety-updated_O.pdf) before and after the treatment. The following scores have been obtained:\nThe score obtained with questionary GAD-7 is classified as follows: • 5-9: mild anxiety; 10-14: moderate anxiety; 15-21: severe anxiety\nas §4\nPatient #4 anxiety has also been evaluated with questionnaire GAD-7 before and after the treatment. The following scores have been obtained:\nas §5\nPatient #6 anxiety has also been evaluated with questionnaire GAD-7 before and after the treatment. The following scores have been obtained:\nThe score obtained with questionnaire GAD-7 is classified as follows: • 5-9: mild anxiety; 10-14: moderate anxiety; 15-21: severe anxiety"}, "AChE": {"system": "AChE", "conditions": "background statement; cited from earlier work"}, "[5]": {"conditions": "Patient #2, daily dose 0.5-2.5 mg"}, "[6]": {"conditions": "Patient #4, daily dose 0.5 to 1.5 mg"}, "[7]": {"conditions": "Patient #6, daily dose 0.5 mg to 2.5 mg"}, "[8]": {"conditions": "Patient #6, daily dose 0.5 mg to 2.5 mg, pre-treatment 3.8"}}, "note": "Like-named read-outs stand apart in the source and are kept apart here."}
{"smiles": "COc1cc2c(cc1OC)C(=O)C(CC1CCN(Cc3ccccc3)CC1)C2", "note": "(centres unmarked) [donepezil]", "values": [{"measurement": "BMI", "setting": "[1]; Patient #2, daily dose 0.5-2.5 mg, over the next 5 months, BMI 18.5 kg/m^2 at start, maintained", "result": "over 20 kg/m^2"}, {"measurement": "BMI", "setting": "[1]; Patient #4, daily dose 1.5 mg, within a month, BMI plateaued after rise to 15 kg/m^2 before treatment", "result": 15.6, "unit": "kg/m^2"}, {"measurement": "body weight", "setting": "[1]; Patient #5, 2.5 mg per day for 2 months, from 27 kg, in 3 months", "result": 36, "unit": "kg"}, {"measurement": "depression symptoms", "setting": "[2]; [5]", "result": "diminution of their depression symptoms"}, {"measurement": "Patient Health Questionnaire (PHQ-9) score, post treatment", "setting": "[2]; Patient #2, daily dose 0.5-2.5 mg, pre-treatment score 10", "result": 4}, {"measurement": "depression symptoms", "setting": "[2]; [6]", "result": "diminution of their depression symptoms"}, {"measurement": "Patient Health Questionnaire (PHQ-9) score, post treatment", "setting": "[2]; Patient #4, daily dose 0.5 to 1.5 mg, pre-treatment score 17", "result": 5}, {"measurement": "depression symptoms", "setting": "[2]; [7]", "result": "diminution of their depression symptoms"}, {"measurement": "Patient Health Questionnaire (PHQ-9) score, post treatment", "setting": "[2]; Patient #6, daily dose 0.5 mg to 2.5 mg, pre-treatment score 6", "result": 2}, {"measurement": "EDE-q Restraint score, post treatment", "setting": "[3]; Patient #4, daily dose 0.5 to 1.5 mg, pre-treatment 4", "result": 2}, {"measurement": "EDE-q Eating concerns score, post treatment", "setting": "[3]; Patient #4, daily dose 0.5 to 1.5 mg, pre-treatment 4.6", "result": 2.2}, {"measurement": "EDE-q Global scores, post treatment", "setting": "[3]; Patient #4, daily dose 0.5 to 1.5 mg, pre-treatment 4.9", "result": 3.0}, {"measurement": "EDE-q Weight concerns score, post treatment", "setting": "[3]; Patient #4, daily dose 0.5 to 1.5 mg, pre-treatment 5.4", "result": 3.4}, {"measurement": "EDE-q Shape concerns score, post treatment", "setting": "[3]; Patient #4, daily dose 0.5 to 1.5 mg, pre-treatment 5.8", "result": 4.4}, {"measurement": "EDE-q Eating concerns score, post treatment", "setting": "[3]; Patient #6, daily dose 0.5 mg to 2.5 mg, pre-treatment 0.6", "result": 0.4}, {"measurement": "EDE-q Global scores, post treatment", "setting": "[3]; Patient #6, daily dose 0.5 mg to 2.5 mg, pre-treatment 3.4", "result": 2.6}, {"measurement": "EDE-q Restraint score, post treatment", "setting": "[3]; [8]", "result": 2.8}, {"measurement": "EDE-q Weight concerns score, post treatment", "setting": "[3]; [8]", "result": 3.2}, {"measurement": "EDE-q Shape concerns score, post treatment", "setting": "[3]; Patient #6, daily dose 0.5 mg to 2.5 mg, pre-treatment 5.4", "result": 4.1}, {"measurement": "anxiety", "setting": "[4]; [5]", "result": "diminution of their anxiety"}, {"measurement": "General anxiety disorder (GAD-7) score, post treatment", "setting": "[4]; Patient #2, daily dose 0.5-2.5 mg, pre-treatment score 16", "result": 12}, {"measurement": "anxiety", "setting": "[4]; [6]", "result": "diminution of their anxiety"}, {"measurement": "General anxiety disorder (GAD-7) score, post treatment", "setting": "[4]; Patient #4, daily dose 0.5 to 1.5 mg, pre-treatment score 16", "result": 9}, {"measurement": "anxiety", "setting": "[4]; [7]", "result": "strong diminution of their anxiety"}, {"measurement": "General anxiety disorder (GAD-7) score, post treatment", "setting": "[4]; Patient #6, daily dose 0.5 mg to 2.5 mg, pre-treatment score 15", "result": 3}, {"measurement": "improvement and severe side effects", "setting": "Other patients (#2-#6), 0.5-2.5 mg PO OD (conclusion)", "result": "improved without severe side effects"}, {"measurement": "blood pressure", "setting": "Patient #1 (comparative), 5 mg daily per os, in local emergency department, previously normal 120/70 mmHg, no other cause found, donepezil discontinued", "result": "183/124"}, {"measurement": "side-effects", "setting": "Patient #1 (comparative), 5 mg daily per os, within 5 days, responded to over-the-counter pain medications", "result": "drowsiness and headaches"}, {"measurement": "blood pressure", "setting": "Patient #1 (comparative), 5 mg daily per os, within a week, previously normal 120/70 mmHg", "result": "175/120"}, {"measurement": "blood pressure", "setting": "Patient #1 (comparative), next few weeks after discontinuing donepezil (5 mg daily), previously normal 120/70 mmHg", "result": "140/95"}, {"measurement": "severe side effect", "setting": "Patient #1, 5 mg PO OD (conclusion)", "result": "severe side effect (high blood pressure and severe headache)"}, {"measurement": "blood pressure", "setting": "[5]", "result": "remained unaffected"}, {"measurement": "other side-effects", "setting": "[5]", "result": "no other side-effects"}, {"measurement": "side effects", "setting": "low dose between 0.5 and 2.5 mg/day, clinical cases overall (conclusion)", "result": "without causing any side effects"}, {"measurement": "inhibition of AChE", "setting": "AChE", "result": "reversible and selective inhibitor of AChE"}]}
